Columns and labels:
[1] = test system: diarrhea-predominant IBS subjects; assay: 3007 Study: 12-lead ECG abnormalities; format: in vivo, human; details: Study 3007
Procedure: Resting 12-lead ECGs were performed at Day 1 (Visit 5 of the core protocol), Months 1, 6, and 12 (end of study or early termination visit). A centralized ECG service was used to evaluate all ECG tracings to supply consistent standardized ECG interpretation.
All analyses and summaries for ECG assessments were based on the evaluation performed in the central ECG laboratory.
For Study 3007, “baseline’ was defined as the pre-treatment period of core Study 3006 for subjects randomized to the cilansetron treatment group in Study 3006 and as the last post-Baseline visit of Study 3006 (normally Visit 5) for subjects randomized to the placebo group in Study 3006. The by-timepoint analyses were based on timepoints defined in Section 5.7.1.2.
Summary statistics are presented for PR, QRS, QT, and QTc intervals (Bazett and Fridericia formulas) and heart rate at each visit and at Endpoint, as well as for change from Baseline results at each post-Baseline visit and at Endpoint. Bazett's and Fridericia's QTc intervals were calculated based on the following formulas: Bazett: QTc intervals=QT/√RR Fridericia: QTc intervals=QT/^3√RR
Markedly abnormal ECG parameter values collected after the first dose of study medication and within 30 days of the last dose of study medication were summarized overall. The following criteria were applied to identify markedly abnormal parameter values: • PR ≧0.210 sec; • QRS ≧0.120 sec; • QTc >0.440 sec;
Heart rate ≧120 bpm or ≦50 bpm or change of ≧15 bpm.
The determination of markedly abnormal for QTc was carried out separately for both the Bazett correction and the Fridericia correction.
The incidence of treatment-emergent ECG abnormalities is presented overall and by type of abnormality. A treatment-emergent ECG abnormality was an abnormality identified by the ECG core laboratory that was not present at baseline (e.g., prior to the entry into core Study 3006), and was observed on or after initiation of study medication and up to 30 days after discontinuation of study medication. The incidence of treatment-emergent ECG abnormalities is presented by time interval, as well as overall for the entire treatment period. The incidence of treatment-emergent abnormalities is also presented in more general categories (e.g., presenting incidence of treatment-emergent myocardial infarction overall as well as by location), depending on whether it mitigates the interpretation.
The overall incidence of marked abnormalities for ECG parameters is presented overall by gender and overall.

[2] = test system: non-constipated IBS subjects; assay: Phase II clinical trial Study S241.2.113, adequate relief of IBS symptoms; format: in vivo, human; details: 2 mg TID
[3] = test system: diarrhea-predominant IBS subjects; details: human, in vivo
[4] = in vivo
Procedure: One subject took fluvoxamine while taking cilansetron 2 mg TID.

[5] = test system: subjects with ROME II defined IBS-D; assay: 5050 Study: double-blind placebo-controlled prn safety study, adverse events and withdrawals; format: in vivo, human; details: Study 5050
Procedure: The 5050 Study was a double-blind, randomized, placebo-controlled study to evaluate the long-term safety and tolerability of cilansetron 2 mg taken on an as needed (prn) basis for 1 year by male and female subjects with ROME II defined IBS-D. The study was performed in 68 centers. Patients were randomized in a 3:1 ratio to receive either cilansetron 2 mg prn or placebo, up to 3 times a day. Safety parameters were explored by comparing the double-blind groups, average daily doses and treatment exposure. Patient visits were scheduled as follows: Visit 1 (pretreatment), Visit 2 (Day 1), Visit 3 (Month 1), Visit 4 (Month 3), Visit 5 (Month 6), Visit 6 (Month 9), and Visit 7 (Month 12). Safety assessments included: adverse events (AEs)/serious adverse events (SAES); laboratory parameters (pretreatment visit and at Months 1, 6, and 12); electrocardiograms (pretreatment visit and at Months 1, 6, and 12); vital signs (at each visit); physical examinations and body weight (pretreatment visit and at Month 12); prior and concomitant medication use (each visit and/or through spontaneous reporting); stool cards for occult blood (every visit except Visit 1). The number of tablets taken per day was recorded daily through a validated interactive voice response system. Patients who met the ROME criteria for IBS and ROME II criteria for the diarrhea predominant subpopulation were included in the study. Patients with acute colitis of any etiology, history of chronic colitis of any etiology, or a history of intestinal obstruction, stricture, toxic megacolon, gastrointestinal (GI) perforation, or fecal impaction were excluded from the study.
For Study 5050, of a total of 402 patients randomized to treatment, 400 received study medication and 395 were included in the safety analysis (cilansetron, N=301; placebo, N=94). Five patients were excluded because of a lack of a post-baseline safety evaluation. Thirty nine percent of patients in the cilansetron group and 56% in the placebo group withdrew from the study; the differences in withdrawals largely were due to lack of efficacy (15% v. 34%, respectively), followed by other unspecified reasons (16% v. 19%, respectively) and AEs (10% v. 9%, respectively). Most patients (57%) were in the 41 to 64 year age category and 72% of all patients were female.

With `Cc1nccn1C[C@H]1CCc2c(c3cccc4c3n2CCC4)C1=O` [cilansetron, (R)-(−)-4,5,6,8,9,10-hexahydro-10-[(2-methyl-1H-imidazol-1-yl)methyl]-11H-pyrido-[3,2,1-jk]-carbazol-11-one] the “marked ECG abnormality: decreased heart rate” value ([1]; female subjects) was 6%, the “marked ECG abnormality: prolonged QTc(B)” value ([1]; female subjects) was 23% and the “marked ECG abnormality: prolonged QTc(F)” value ([1]; female subjects) was 10%. The “treatment-emergent ECG abnormality: early repolarization-normal variant” value ([1]; female subjects) was 2%, the “treatment-emergent ECG abnormality: poor R-wave progression” value ([1]; female subjects) was 13% and the “treatment-emergent ECG abnormality: sinus arrhythmia” value ([1]; female subjects) was 19%. For the same molecule, the “marked ECG abnormality: decreased heart rate” value ([1]; male subjects) was 13%, the “marked ECG abnormality: prolonged QTc(B)” value ([1]; male subjects) was 6% and the “marked ECG abnormality: prolonged QTc(F)” value ([1]; male subjects) was 3%. The “treatment-emergent ECG abnormality: early repolarization-normal variant” value ([1]; male subjects) was 19%, the “treatment-emergent ECG abnormality: poor R-wave progression” value ([1]; male subjects) was 6% and the “treatment-emergent ECG abnormality: sinus arrhythmia” value ([1]; male subjects) was 25%. For the same molecule, the “incidence of prolonged QT interval” value ([1]; overall) was 4%, the “marked ECG abnormality: heart rate decrease” value ([1]; overall) was 14% and the “marked ECG abnormality: heart rate increase” value ([1]; overall) was 15%. For the same molecule, the “marked ECG abnormality: prolonged QTc(B)” value ([1]; overall) was 17%, the “subjects with a post-Baseline marked ECG abnormality” value ([1]; overall) was 50% and the “subjects with a treatment-emergent ECG abnormality” value ([1]; overall) was 62%. For the same molecule, the “treatment-emergent ECG abnormality: borderline LA enlargement” value ([1]; overall) was 6%, the “treatment-emergent ECG abnormality: early R-wave transition” value ([1]; overall) was 6% and the “treatment-emergent ECG abnormality: early repolarization-normal variant” value ([1]; overall) was 8%. The “treatment-emergent ECG abnormality: non-specific T-wave changes” value ([1]; overall) was 7%, the “treatment-emergent ECG abnormality: poor R-wave progression” value ([1]; overall) was 11% and the “treatment-emergent ECG abnormality: sinus arrhythmia” value ([1]; overall) was 21%. For the same molecule, the “treatment-emergent ECG abnormality: sinus bradycardia” value ([1]; overall) was 10%, the “adequate relief of IBS symptoms versus placebo” value [2] was “superior to placebo” and the “TEAE leading to permanent discontinuation: Oesophageal Reflux Aggravated” value ([3]; both) was 1 (<1%) n (%). The “TEAE: Oesophageal Reflux Aggravated” value ([3]; both, 52 weeks) was 3 (<1%) n (%), the “TEAE: Gastrooesophageal Reflux Disease” value ([3]; 52 weeks) was 4 (<1%) n (%) and the “increase of cilansetron plasma levels” value [4] was “approximately six to seven”. The “Treatment-related AE: Alanine aminotransferase increased” value ([5]; 2 mg prn (N = 301)) was 9 (3) N (%), the “Treatment-related AE: Diarrhea (not otherwise specified)” value ([5]; 2 mg prn (N = 301)) was 5 (2) N (%) and the “Treatment-related AE: Flatulence” value ([5]; 2 mg prn (N = 301)) was 6 (2) N (%). For the same molecule, the “Treatment-related AE: Headache (not otherwise specified)” value ([5]; 2 mg prn (N = 301)) was 13 (4) N (%), the “Treatment-related AE: Nausea” value ([5]; 2 mg prn (N = 301)) was 15 (5) N (%) and the “Treatment-related AE: Rectal Hemmorhage” value ([5]; 2 mg prn (N = 301)) was 8 (3) N (%). For the same molecule, the “treatment-related AE: abdominal pain not otherwise specified” value ([5]; 2 mg prn (N = 301)) was 16 (5) N (%), the “treatment-related AE: constipation” value ([5]; 2 mg prn (N = 301)) was 24 (8) N (%) and the “AE incidence: GI and abdominal pain (excluding oral and throat)” value ([5]; cilansetron group) was 12%. The “AE incidence: GI atonic and hypomotility disorders” value ([5]; cilansetron group) was 11%, the “AE incidence: nausea and vomiting” value ([5]; cilansetron group) was 7% and the “AE leading to study discontinuation: abdominal pain” value ([5]; cilansetron group) was 2%. The “AE leading to study discontinuation: constipation” value ([5]; cilansetron group) was 2%, the “treatment-related AE: abdominal pain not otherwise specified” value ([5]; cilansetron group) was 5% and the “treatment-related AE: constipation” value ([5]; cilansetron group) was 8%. The “withdrawals due to AEs” value ([5]; cilansetron group) was 10% and the “withdrawals due to lack of efficacy” value ([5]; cilansetron group) was 15%.

— patent US20070093520A1, “Method of treatment of diarrhea-predominant irritable bowel syndrome in a subject” (priority 2005, published 2007)
